Assay [1] concerns the target T1, androgen receptor (AR) splicing variant AR-v7 (Homo sapiens, UniProt P10275).
T1 construct: The degradation activity of compounds on AR-v7 in 22RV1 cells; host or cells: 22RV1 cells
T1 sequence (P10275 1-644 isoform P10275-3): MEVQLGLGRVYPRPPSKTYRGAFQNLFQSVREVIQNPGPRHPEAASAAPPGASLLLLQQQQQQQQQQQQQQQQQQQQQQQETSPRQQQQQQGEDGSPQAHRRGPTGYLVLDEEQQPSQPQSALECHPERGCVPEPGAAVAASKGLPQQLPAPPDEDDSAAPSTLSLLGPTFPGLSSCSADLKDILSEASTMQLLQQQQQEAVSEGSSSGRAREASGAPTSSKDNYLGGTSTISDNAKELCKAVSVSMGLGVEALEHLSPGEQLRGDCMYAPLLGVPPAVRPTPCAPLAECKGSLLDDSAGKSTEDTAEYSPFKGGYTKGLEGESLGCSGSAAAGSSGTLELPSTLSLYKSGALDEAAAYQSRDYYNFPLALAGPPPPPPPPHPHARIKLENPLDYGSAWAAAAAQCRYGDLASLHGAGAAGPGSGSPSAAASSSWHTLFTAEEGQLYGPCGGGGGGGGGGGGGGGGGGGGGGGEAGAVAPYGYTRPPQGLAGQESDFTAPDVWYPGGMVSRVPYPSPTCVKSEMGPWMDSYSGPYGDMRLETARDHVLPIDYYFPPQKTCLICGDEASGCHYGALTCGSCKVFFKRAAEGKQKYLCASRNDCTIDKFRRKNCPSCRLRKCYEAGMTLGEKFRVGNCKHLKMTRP
The assay is described as follows: Degradation activity on androgen receptor splicing variant AR-v7 in 22RV1 cells (ELISA). The class given is cell-based. Particulars: AR-v7 degradation in 22RV1 cells, 48 h. Background: In an ELISA, binding on a coated surface is turned into a signal by an enzyme label.

For the next assay, the system named is 22RV1 cells. Particulars: Homo sapiens, 22Rv1, 144 h.
Setting [2] is: read-out: 22RV1 IC50 (nM), 22RV1 cells, 6 days culture, CCK-8, OD 450 nm.

Molecules are shown by their SMILES. Where two headings read alike, the source gives them in different places.

The DC50 is the concentration at which degradation of the target reaches its halfway point. As a reminder, the IC50 is the concentration at which inhibition is half-maximal. On to `CC(C)(c1ccc(OCc2ccnc(-c3cn[nH]c3)n2)cc1)c1ccc(O[C@H]2C[C@@H](Nc3ccc4c(c3)C(=O)N(C3CCC(=O)NC3=O)C4=O)C2)cc1` (some centres unmarked) [Example 273], for which, in assay [1] (class symbols), the DC50 was less than 10 nM. Moreover, the IC50 in the assay with 22RV1 cells (setting [2]) worked out at 10 nM.

In the case of `CNc1nccc(COc2ccc(C(C)(C)c3ccc(OC4CC(Nc5ccc6c(c5)C(=O)N(C5CCC(=O)NC5=O)C6=O)C4)cc3)cc2)n1` (centres unmarked) [Example 392], in assay [1] (class symbols), the DC50 lay in the range of 11 to 100 nM. The 50% inhibitory concentration (IC50) with 22RV1 cells (setting [2]) stood at 21 nM.

Consider `CC(C)(c1ccc(OCc2cccc(-c3nnco3)n2)cc1)c1ccc(O[C@H]2C[C@H](Nc3ccc4c(c3)C(=O)N(C3CCC(=O)NC3=O)C4=O)C2)cc1` (some centres unmarked) [Example 470, 5-(((1r,3r)-3-(4-(2-(4-((6-(1,3,4-oxadiazol-2-yl)pyridin-2-yl)methoxy)phenyl)propan-2-yl)phenoxy)cyclobutyl)amino)-2-(2,6-dioxopiperidin-3-yl)isoindolin-1,3-dione], for which the half-maximal degradation concentration (DC50) in assay [1] (class symbols) is less than 10 nM. In addition, the IC50 in the assay with 22RV1 cells (setting [2]) is 7 nM.

On to `CC(C)(c1ccc(Oc2ncc(N3CC4(COC4)C3)cn2)cc1)c1ccc(O[C@H]2C[C@H](Nc3ccc4c(c3)C(=O)N(C3CCC(=O)NC3=O)C4=O)C2)cc1` (some centres unmarked) [Example 311], for which the DC50 in assay [1] (class symbols) is less than 10 nM. Besides, the 50% inhibitory concentration (IC50) in the assay with 22RV1 cells (setting [2]) worked out at 18 nM.

`CC(C)(c1ccc(OCc2ccnc(N3CCC[C@@H](O)C3)n2)cc1)c1ccc(O[C@H]2C[C@@H](Nc3ccc4c(c3)C(=O)N(C3CCC(=O)NC3=O)C4=O)C2)cc1` (some centres unmarked) [Example 397] came in with a 50% degradation concentration (DC50) in assay [1] (class symbols) of less than 10 nM. The IC50 in the assay with 22RV1 cells (setting [2]) came out at 13 nM.

In the case of `Cc1nnc(-c2ncc(F)cc2Oc2ccc(C(C)(C)c3ccc(O[C@H]4C[C@H](Nc5ccc6c(c5)C(=O)N(C5CCC(=O)NC5=O)C6=O)C4)cc3)cc2)o1` (some centres unmarked) [Example 95, 2-(2,6-dioxopiperidin-3-yl)-5-(((1r,3r)-3-(4-(2-(4-((5-fluoro-2-(5-methyl-1,3,4-oxadiazol-2-yl)pyridin-3-yl)oxy)phenyl)propan-2-yl)phenoxy)cyclobutyl)amino)isoindolin-1,3-dione], in assay [1] (class symbols), the DC50 is less than 10 nM. Moreover, in the assay on 22RV1 cells (setting [2]), the IC50 is 6 nM.

In assay [1] (class symbols), `COc1nccc(COc2ccc(C(C)(C)c3ccc(OC4CC(Nc5ccc6c(c5)C(=O)N(C5CCC(=O)NC5=O)C6=O)C4)cc3)cc2)n1` (centres unmarked) [Example 447, 2-(2,6-dioxopiperidin-3-yl)-5-((3-(4-(2-(4-((2-methoxypyrimidin-4-yl)methoxy)phenyl)propan-2-yl)phenoxy)cyclobutyl)amino) isoindolin-1,3-dione] came in with a 50% degradation concentration (DC50) of less than 10 nM. For the same compound, the half-maximal inhibitory concentration (IC50) with 22RV1 cells (setting [2]) is 8 nM.

In assay [1] (class symbols), `CC(O)c1ccc(Oc2ccc(C3(c4ccc(O[C@H]5C[C@H](Nc6ccc7c(c6)C(=O)N(C6CCC(=O)NC6=O)C7=O)C5)cc4)CCOCC3)cc2)nn1` (some centres unmarked) [Example 105] gave a DC50 of less than 10 nM. In the assay with 22RV1 cells (setting [2]), the IC50 was 0.2 nM.

In assay [1] (class symbols), `CC(=O)c1cnc(Oc2ccc(C(C)(C)c3ccc(O[C@H]4C[C@H](Nc5ccc6c(c5)C(=O)N(C5CCC(=O)NC5=O)C6=O)C4)cc3)cc2)cn1` (some centres unmarked) [Example 596] showed a DC50 of less than 10 nM. For the same compound, the IC50 with 22RV1 cells (setting [2]) was found to be 10 nM.

Consider `CCC(CC)(c1ccc(Oc2ccc(-c3noc(C)n3)nn2)cc1)c1ccc(O[C@H]2C[C@@H](Nc3ccc4c(c3)C(=O)N(C3CCC(=O)NC3=O)C4=O)C2)cc1` (some centres unmarked) [Example 526], for which the DC50 in assay [1] (class symbols) is less than 10 nM. In the assay with 22RV1 cells (read-out: 22RV1 IC50 (nM)), the IC50 was 5 nM.

The compound `CC(=O)c1nccc(COc2ccc(C(C)(C)c3ccc(OCCCNc4ccc5c(c4)C(=O)N(C4CCC(=O)NC4=O)C5=O)cc3)cc2)n1` (centres unmarked) [Example 343, 5-((3-(4-(2-(4-((2-acetylpyrimidin-4-yl)methoxy)phenyl)isopropan-2-yl)phenoxy)propyl)amino)-2-(2,6-dioxopiperidin-3-yl)isoindolin-1,3-dione] had a 50% degradation concentration (DC50) in assay [1] (class symbols) of 11 to 100 nM. Also, the half-maximal inhibitory concentration (IC50) in the assay with 22RV1 cells (setting [2]) turned out to be 19 nM.

`CC(C)(c1ccc(OCc2nccc(N3CC4(COC4)C3)n2)cc1)c1ccc(O[C@H]2C[C@H](Nc3ccc4c(c3)C(=O)N(C3CCC(=O)NC3=O)C4=O)C2)cc1` (some centres unmarked) [Example 544]: in the assay with 22RV1 cells (setting [2]), the half-maximal inhibitory concentration (IC50) came out at 12 nM.

On to `CC(C)(c1ccc(OCc2cncc(N3CC4(COC4)C3)n2)cc1)c1ccc(O[C@H]2C[C@@H](Nc3ccc4c(c3)C(=O)N(C3CCC(=O)NC3=O)C4=O)C2)cc1` (some centres unmarked) [Example 538], for which the 50% inhibitory concentration (IC50) in the assay with 22RV1 cells (setting [2]) was found to be 12 nM.

With `CC(C)(c1ccc(OCc2ccnc(N3CC4(COC4)C3)n2)cc1)c1ccc(O[C@H]2C[C@H](Nc3ccc4c(c3)C(=O)N(C3CCC(=O)NC3=O)C4=O)C2)c(F)c1` (some centres unmarked) [Example 364, 5-(((1r,3r)-3-(4-(2-(4-((2-(2-oxa-6-azaspiro[3.3]heptane-6-yl)pyrimidin-4-yl)methoxy)phenyl)isopropan-2-yl)-2-fluorophenoxy)cyclobutyl)amino)-2-(2,6-dioxopiperidin-3-yl)isoindolin-1,3-dione], the IC50 in the assay with 22RV1 cells (read-out: 22RV1 IC50 (nM)) amounted to 12 nM.

Take `CC(C)(c1ccc(OCc2cc(N3CC4(COC4)C3)ncn2)cc1)c1ccc(OC2CC(Nc3ccc4c(c3)C(=O)N(C3CCC(=O)NC3=O)C4=O)C2)cc1` (centres unmarked) [Example 532]: the half-inhibitory concentration (IC50) with 22RV1 cells (setting [2]) came to 9 nM.

With `CC(C)(c1ccc(OCc2ccnc(NS(C)(=O)=O)n2)cc1)c1ccc(OC[C@H]2CC[C@H](COCCCCCNc3ccc4c(c3)C(=O)N(C3CCC(=O)NC3=O)C4=O)CC2)cc1` (some centres unmarked) [Example 56, N-(4-((4-(2-(4-(((1r,4r)-4-(((5-((2-(2,6-dioxopiperidin-3-yl)-1,3-dioxoisoindolin-5-yl)amino)pentyl)oxy)methyl)cyclohexyl)methoxy)phenyl)isopropan-2-yl)phenoxy)methyl)pyrimidin-2-yl)methanesulfonamide], the DC50 in assay [1] (numeric values) came to 5200 nM.

Regarding `CN1CCC2(CCN(c3nccc(COc4ccc(C(C)(C)c5ccc(OC6CC(Nc7ccc8c(c7)C(=O)N(C7CCC(=O)NC7=O)C8=O)C6)cc5)cc4)n3)C2)C1` (centres unmarked) [Example 79, 2-(2,6-dioxopiperidin-3-yl)-5-((3-(4-(2-(4-((2-(7-methyl-2,7-diazaspiro[4.4]nonan-2-yl)pyrimidin-4-yl)methoxy)phenyl)propan-2-yl)phenoxy)cyclobutyl)amino)isoindolin-1,3-dione], in assay [1] (class symbols), the half-maximal degradation concentration (DC50) was in the range of 11 to 100 nM.

In assay [1] (class symbols), `CC(C)(c1ccc(OCCCNc2ccc3c(c2)C(=O)N(C2CCC(=O)NC2=O)C3=O)cc1)c1ccc(OCc2nc(C(=O)N3CCC3)no2)cc1` (centres unmarked) [Example 139, 5-((3-(4-(2-(4-((3-(azetidin-1-carbonyl)-1,2,4-oxadiazol-5-yl)methoxy)phenyl)propan-2-yl)phenoxy)propyl)amino)-2-(2,6-dioxopiperidin-3-yl)isoindolin-1,3-dione] gave a half-maximal degradation concentration (DC50) of 101 to 1000 nM.

Compound `Cc1nc(-c2ccc(Oc3ccc(C(C)(C)c4ccc(O[C@H]5C[C@@H](Nc6ccc7c(c6)C(=O)N(C6CCC(=O)NC6=O)C7=O)C5)cc4)cc3)cn2)no1` (some centres unmarked) [Example 587] showed a 50% degradation concentration (DC50) in assay [1] (class symbols) of 11 to 100 nM.

`NC(=O)c1noc(COc2ccc(C3(c4ccc(OCCCNc5ccc6c(c5)C(=O)N(C5CCC(=O)NC5=O)C6=O)cc4)CCC3)cc2)n1` (centres unmarked) [Example 352, 5-((4-(1-(4-(3-((2-(2,6-dioxopiperidin-3-yl)-1,3-dioxoisoindolin-5-yl)amino)propoxy)phenyl)cyclobutyl)phenoxy)methyl)-1,2,4-oxadiazol-3-carbonylamine] came in with a DC50 in assay [1] (class symbols) of 11 to 100 nM.

Turning to `CC(C)(c1ccc(OCc2nc(-n3ccnn3)ccc2F)cc1)c1ccc(O[C@H]2C[C@H](Nc3ccc4c(c3)C(=O)N(C3CCC(=O)NC3=O)C4=O)C2)cc1` (some centres unmarked) [Example 285], the DC50 in assay [1] (class symbols) lay within 11 to 100 nM.
